Experimental data taken from patent publication US4492650A, “A54556 Antibiotics and process for production thereof” (Eli Lilly and Company, priority 1982, dated 1985).
In brackets after ≈: the same amount, converted by molar mass. Several values for one entry are separate records, joined by “and”; a condition that tells them apart may be missing. Equal entries are not always repeated. Where two headings read alike, the source gives them in different places. Bridge positions count the residues as written; N and C are the ends. Square brackets hold non-standard residues; d marks the D form. Peptide text beside a SMILES is read from it. * marks the point of attachment. ξ: configuration not given here. Octatrienoyl(2E,4E,6E) = C/C=C/C=C/C=C/C(=O)*; ξPro(4ξ-Me) = CC1CNC(C(=O)O)C1; X2 = CCC/C=C/C=C/C(=O)*; NMeA = CN[CH](C)C(=O)O

Legend:
[1] = test system: Culture A54556; experiment: Sensitivity of Culture A54556 to antibiotics, sensitivity discs on ISP medium No. 2 agar; type: cell-based, Streptomyces hawaiiensis NRRL 15010; note: key: +: sensitive, zones of inhibition; -: resistant, no zones of inhibition
Method: The sensitivity of Culture A54556 to several antibiotics at specific concentrations was determined with sensitivity discs padded onto the surface of plates containing ISP medium No. 2 agar seeded with 2% inoculum of Culture A54556.

[2] = test system: Staphylococcus aureus 3055; settings: second test, Table 13, benzylpenicillin-susceptible
[3] = test system: Fusobacterium symbiosum 1470; experiment: MIC, agar-dilution method; type: cell-based
[4] = test system: Clostridium perfringens 81; experiment: microbe, parasite or virus in culture; type: cell-based
[5] = test system: Bacteroides corrodens 1874; experiment: MIC, agar-dilution method; type: cell-based; settings: Eikenella corrodens
[6] = test system: anaerobic bacteria; experiment: Activity against anaerobic bacteria; type: cell-based; settings: agar-dilution method
[7] = test system: S. pyogenes; experiment: In vivo protection against experimental bacterial infection in mice; settings: Streptococcus pyogenes, sc, two doses subcutaneously
Method: (§1) When two doses of test compound were administered subcutaneously to mice in illustrative infections, the activity is measured as an ED50 value [effective does in mg./kg. to protect fifty percent of the test animals: See Warren Wick et al., J. Bacteriol. 81, 233-235 (1961)]. The ED50 values for these antibiotic A54556 factors are recorded in Table 15, which follows.

[8] = test system: Peptostreptococcus anaerobius 1428; experiment: MIC, agar-dilution method; type: cell-based
[9] = Electrometric titration; type: physicochemical; settings: 66 percent dimethylformamide in water
Excerpt: Antibiotic A54556 factor A is a tan, amorphous solid. […] As determined by electron impact and field desorption mass spectrometry, A54556 factor A has a molecular weight of 718.

[10] = test system: Streptococcus pneumoniae Park I; settings: second test, Table 13
[11] = test system: experimental bacterial infections; experiment: In vivo antimicrobial activity against experimental bacterial infections; settings: mice, subcutaneously
Method: as §1

[12] = test system: Peptococcus prevoti 1281; experiment: MIC, agar-dilution method; type: cell-based
[13] = test system: Staphylococcus epidermidis EPI1; settings: second test, Table 13
[14] = test system: Streptococcus pyogenes (Group A) C203; settings: second test, Table 13
[15] = test system: Streptococcus sp. (Group D) X66; experiment: Disc-plate sensitivity; type: cell-based; settings: second test, Table 13; for zone of inhibition at 30 µg/disc / zone of inhibition at 300 µg/disc: Streptococcus; for zone of inhibition at 30 µg/disc: read-out: Zone diameter, 30 mcg./disc; for Zone diameter: listed as B
[16] = test system: Bacteroides vulgatis 1211; experiment: MIC, agar-dilution method; type: cell-based
[17] = test system: Bacteroides melaninogenicus 1856/28; experiment: MIC, agar-dilution method; type: cell-based; settings: Prevotella intermedia
Excerpt: (§2) Antibiotic A54556 factors A, B, C, D, E, F, G, and H have been tested and found to be active against a number of anaerobic bacteria, as recorded in Table 14, which follows, the MIC values having been determined by the agar-dilution method.

[18] = test system: Bacteroides thetaiotaomicron 1438; experiment: MIC, agar-dilution method; type: cell-based
Excerpt: as §2

[19] = test system: Peptostreptococcus intermedius 1264; experiment: MIC, agar-dilution method; type: cell-based
Excerpt: as §2

[20] = test system: Bacteroides fragilis 111; experiment: MIC, agar-dilution method; type: cell-based
Excerpt: as §2

[21] = test system: Bacteroides fragilis 1936B; experiment: MIC, agar-dilution method; type: cell-based
Excerpt: as §2

[22] = test system: Clostridium difficile 2994; experiment: MIC, agar-dilution method; type: cell-based; settings: Clostridioides difficile
Excerpt: as §2

[23] = test system: Bacteroides fragilis 1877; experiment: MIC, agar-dilution method; type: cell-based
Excerpt: as §2

[24] = test system: Eubacterium aerofaciens 1235; experiment: MIC, agar-dilution method; type: cell-based; settings: Collinsella aerofaciens
Excerpt: as §2

[25] = test system: Propionibacterium acnes 79; experiment: MIC, agar-dilution method; type: cell-based; settings: Cutibacterium acnes
Excerpt: as §2

[26] = test system: Bacteroides melaninogenicus 2736; experiment: MIC, agar-dilution method; type: cell-based
Excerpt: as §2

[27] = test system: Clostridium septicum 1128; experiment: MIC, agar-dilution method; type: cell-based
Excerpt: as §2

[28] = test system: Fusobacterium necrophorum 6054A; experiment: MIC, agar-dilution method; type: cell-based
Excerpt: as §2

[29] = test system: Peptococcus asaccharolyticus 1302; experiment: MIC, agar-dilution method; type: cell-based; settings: Peptoniphilus asaccharolyticus
[30] = test system: Staphylococcus aureus V41; settings: second test, Table 13, benzylpenicillin resistant

SMILES | Zone diameter ([2]; 30 mcg./disc) | Zone diameter ([2]; 300 mcg./disc) [mm.] | MIC [4] [µg/mL] | MIC [5] [µg/mL] | activity against a number of anaerobic bacteria [6] | ED50 [7] [mg/kg] | titratable groups [9] | Zone diameter ([10]; 30 mcg./disc) [mm.] | Zone diameter ([10]; 300 mcg./disc) [mm.] | in vivo antimicrobial activity against experimental bacterial infections [11] | zone of inhibition at 30 µg/disc [15] [mm] | MIC [17] [µg/mL] | MIC [18] [µg/mL] | MIC [19] [µg/mL] | MIC [20] [µg/mL] | MIC [21] [µg/mL] | MIC [22] [µg/mL] | MIC [23] [µg/mL] | MIC [24] [µg/mL] | MIC [25] [µg/mL] | also measured
CC[C@H]1OC(=O)[C@H](C)[C@@H](O[C@H]2C[C@@](C)(OC)[C@@H](O)[C@H](C)O2)[C@H](C)[C@@H](O[C@@H]2O[C@H](C)C[C@H](N(C)C)[C@H]2O)[C@](C)(O)C[C@@H](C)C(=O)[C@H](C)[C@@H](O)[C@]1(C)O [Erythromycin] |  |  |  |  |  |  |  |  |  |  |  |  |  |  |  |  |  |  |  |  | Antibiotic Sensitivity of Culture A54556 ([1]; 15 mcg. disc): -
CCC/C=C/C=C/C(=O)NC(Cc1ccccc1)C(=O)NC1COC(=O)C2CCCN2C(=O)C(C)NC(=O)C(C)N(C)C(=O)C2CC(C)CN2C1=O (stereo not drawn) [Factor D] (X2-FS[ξPro(4ξ-Me)][NMeA]AP; ester 2-C; configuration not given here) | 29 mm. | 30 | > 128 | > 128 | active | > 70 | no titratable groups | 30 | 34 | have shown in vivo antimicrobial activity | 26 | > 128 | > 128 | > 128 | > 128 | > 128 | > 128 | > 128 | > 128 | > 128 | MIC [3]: > 128 µg/mL; MIC [8]: 128 µg/mL (≈ 178 µM); MIC [12]: > 128 µg/mL; Zone diameter ([13]; 30 mcg./disc): 25 mm.; Zone diameter ([13]; 300 mcg./disc): 34 mm.; Zone diameter ([14]; 30 mcg./disc): 24 mm.; Zone diameter ([14]; 300 mcg./disc): 32 mm.; zone of inhibition at 300 µg/disc ([15]; read-out: Zone diameter, 300 mcg./disc): 33 mm; MIC [16]: > 128 µg/mL; MIC [26]: > 128 µg/mL; MIC [27]: > 128 µg/mL; MIC [28]: > 128 µg/mL; MIC [29]: 128 µg/mL (≈ 178 µM); Zone diameter ([30]; 30 mcg./disc): 27 mm.; Zone diameter ([30]; 300 mcg./disc): 28 mm.
CO[C@H]1/C=C/O[C@@]2(C)Oc3c(C)c(O)c4c(O)c(c(/C=N/N5CCN(C)CC5)c(O)c4c3C2=O)NC(=O)/C(C)=C\C=C\[C@H](C)[C@H](O)[C@@H](C)[C@@H](O)[C@@H](C)[C@H](OC(C)=O)[C@@H]1C [Rifampin] |  |  |  |  |  |  |  |  |  |  |  |  |  |  |  |  |  |  |  |  | Antibiotic Sensitivity of Culture A54556 ([1]; 5 mcg. disc): +
CO[C@@H]1[C@@H](OC(N)=O)[C@@H](O)[C@H](Oc2ccc3c(O)c(NC(=O)c4ccc(O)c(CC=C(C)C)c4)c(=O)oc3c2C)OC1(C)C [Novobiocin] |  |  |  |  |  |  |  |  |  |  |  |  |  |  |  |  |  |  |  |  | Antibiotic Sensitivity of Culture A54556 ([1]; 30 mcg. disc): +
CN(C)C1C(=O)C(C(N)=O)=C(O)C2(O)C(=O)C3=C(O)c4c(O)cccc4C(C)(O)C3CC12 (stereo not drawn) [Tetracycline] |  |  |  |  |  |  |  |  |  |  |  |  |  |  |  |  |  |  |  |  | Antibiotic Sensitivity of Culture A54556 ([1]; 30 mcg. disc): +
C/C=C/C=C/C=C/C(=O)NC(Cc1ccccc1)C(=O)NC1COC(=O)C2CCCN2C(=O)C(C)NC(=O)C(C)N(C)C(=O)C2CCCN2C1=O (stereo not drawn) [Factor B] ({Octatrienoyl(2E,4E,6E)}-FSP[NMeA]AP; ester 2-C; configuration not given here) | 18 mm. and 20 mm. | 26 | 16 (≈ 22.7 µM) | > 128 | active | > 70 | no titratable groups | 25 | 32 | have shown in vivo antimicrobial activity | 22 | > 128 | 16 (≈ 22.7 µM) | > 128 | 32 (≈ 45.4 µM) | 16 (≈ 22.7 µM) | > 128 | > 128 | 16 (≈ 22.7 µM) | > 128 | MIC ([3]; agar-dilution, read-out: MIC): 8 µg/mL (≈ 11.4 µM); MIC ([8]; agar-dilution, read-out: MIC): 8 µg/mL (≈ 11.4 µM); Zone diameter ([10]; 30 mcg./disc, listed as B): 20 mm.; Zone diameter ([10]; 300 mcg./disc, listed as B): 35 mm.; MIC ([12]; agar-dilution, read-out: MIC): 8 µg/mL (≈ 11.4 µM); Zone diameter ([13]; 30 mcg./disc, listed as B): 13 mm. and 16 mm.; Zone diameter ([13]; 300 mcg./disc, listed as B): 21 mm. and 27 mm.; Zone diameter ([14]; 30 mcg./disc, listed as B): 18 mm. and 26 mm.; Zone diameter ([14]; 300 mcg./disc, listed as B): 24 mm. and 30 mm.; Zone diameter ([15]; 30 mcg./disc): 23 mm.; Zone diameter ([15]; 300 mcg./disc): 27 mm.; zone of inhibition at 300 µg/disc ([15]; 300 mcg./disc, read-out: Zone diameter): 30 mm; MIC ([16]; agar-dilution, read-out: MIC): 32 µg/mL (≈ 45.4 µM); MIC [26]: > 128 µg/mL; MIC [27]: 16 µg/mL (≈ 22.7 µM); MIC [28]: 16 µg/mL (≈ 22.7 µM); MIC ([29]; agar-dilution, read-out: MIC): 8 µg/mL (≈ 11.4 µM); Zone diameter ([30]; 30 mcg./disc): 15 mm. and 18 mm.; Zone diameter ([30]; 300 mcg./disc): 19 mm. and 26 mm.
